“Also recorded” adds a separate entry of the source.

To fix the notation:
B1: IGF1 (Y^B16L^B17) analog (ligand)
chain 1: GIVDECCFRSCDLRRLEMYCA
chain 2: GPETLCGAELVDALYLVCGDRGFYFNKPT
notes: Two chain analog; also called IGF analog

The first assay has as its system STZ-mice. In words: Blood glucose in STZ diabetic mice after insulin/antagonist peptide conjugates. In kind it is in vivo. Particulars: 10 nmol/kg, mice fasted 2 hours.
Procedure: The peptides were tested in STZ-mice, due to their high fasting blood glucose levels.
On to “#6(A2)-Cys-Insulin: B29 modified insulin disulfide-conjugated to 6(A2)Cys SAEEEWAQIQSEVWGRGSPSYC (SEQ ID NO: 172)”, for which the “blood glucose response versus equivalent dose of native insulin” value is “behaved identically to an equivalent dose of native insulin”.

In the next assay the test system is insulin receptor A (IRA) and insulin receptor B (IRB) isoforms. Description: Insulin receptor phosphorylation assay in receptor transfected HEK293 cells. In kind it is cell-based, human. Particulars: agonism.
Procedure: Color development was stopped 5 min later by adding 0.05 ml 1 N HCl. Absorbance at 450 nm was measured on Titertek Multiscan MCC340 (ThermoFisher, Pittsburgh, Pa.). Absorbance vs. peptide concentration dose response curves were plotted and EC50 values were determined by using Origin software (OriginLab, Northampton, Mass.).
Optical density at 450 nm was graphed as a function of peptide concentration using Origin Pro 9.0 graphing software.
On to “#6(A1)-Cys-Insulin: B29 modified insulin disulfide-conjugated to 6(A1)Cys ALEEEWAQIQSEVWGRGPSYC (SEQ ID NO: 171)”, for which the “agonist (maximal) activity at the insulin receptor isoforms” value (“agonist (maximal) activity” below) was “almost no effect upon bioactivity”. Take “#6(A2)-Cys-Insulin: B29 modified insulin disulfide-conjugated to 6(A2)Cys SAEEEWAQIQSEVWGRGSPSYC (SEQ ID NO: 172)”: the “agonist (maximal) activity” value was “restored almost all of the potency and activity”; the “potency at the insulin receptor isoforms” value was “restored almost all of the potency and activity”. Take “#6(A3)-Cys-Insulin: B29 modified insulin disulfide-conjugated to 6(A3)Cys SLAEEWAQIQSEVWGRGSPSYC (SEQ ID NO: 173)”: the “agonist (maximal) activity” value is “little effect on maximal activity” and the “potency at the insulin receptor isoforms” value was “shift the potency”.

On to “#6(I2)-Cys-Insulin: B29 modified insulin disulfide-conjugated to 6(I2)Cys SIEEEWAQIQSEVWGRGSPSYC (SEQ ID NO: 175)”, for which the “agonist (maximal) activity” value is on record as “very similar, low maximal activities”. As for “#6(Q2)-Cys-Insulin: B29 modified insulin disulfide-conjugated to 6(Q2)Cys SQEEEWAQIQSEVWGRGSPSYC (SEQ ID NO: 180)”, the “agonist (maximal) activity” value is listed as “without a significant decrease in maximal activity; also recorded: high of maximal activity” and the “potency at the insulin receptor isoforms” value is on record as “shift in potency; also recorded: decrease in potency”. As to “#6(V2)-Cys-Insulin: B29 modified insulin disulfide-conjugated to 6(V2)Cys SVEEEWAQIQSEVWGRGSPSYC (SEQ ID NO: 176)”, the “agonist (maximal) activity” value is reported as “slight increase in maximal activity”.

On to “#6(dL2)-Cys-Insulin: B29 modified insulin disulfide-conjugated to 6(dL2)Cys SdLEEEWAQIQSEVWGRGSPSYC (SEQ ID NO: 174)”, for which the “agonist (maximal) activity” value is on record as “low activity” and the “potency at the insulin receptor isoforms” value was “decreased potency”.

As for “#6(des1-5)-Cys-Insulin: B29 modified insulin disulfide-conjugated to 6(des1-5)Cys WAQIQSEVWGRGSPSYC (SEQ ID NO: 170)”, the “agonist (maximal) activity” value was “full activity” and the “potency at the insulin receptor isoforms” value is given as “full potency”.

In the case of “#Insulin-Cys-4: B29 modified insulin disulfide-conjugated to Cys4 CGSLDESFYDWFERQLG (SEQ ID NO: 166)”, the “agonist (maximal) activity” value is “only a small change in maximal activity” and the “potency at the insulin receptor isoforms” value is “a small decrease in potency”. Take “modified insulin: native insulin modified with an NHS ester to carry one additional thiol functional group at the B29 lysine”: the “agonist (maximal) activity” value is given as “fully activating the insulin receptor isoforms” and the “potency at the insulin receptor isoforms” value is on record as “slightly reduced potency”.

The assay is the same for the next values; noted with them: agonism, both receptor isoforms.
“#6(F2)-Cys-Insulin: B29 modified insulin disulfide-conjugated to 6(F2)Cys SFEEEWAQIQSEVWGRGSPSYC (SEQ ID NO: 177)”: the “maximal activity relative to native insulin” value is around 50%. The same measure, in the same setting: as for “#6(W2)-Cys-Insulin: B29 modified insulin disulfide-conjugated to 6(W2)Cys SWEEEWAQIQSEVWGRGSPSYC (SEQ ID NO: 178)”, the entry is “approximately 60%”; as for “#6(Y2)-Cys-Insulin: B29 modified insulin disulfide-conjugated to 6(Y2)Cys SYEEEWAQIQSEVWGRGSPSYC (SEQ ID NO: 179)”, “approximately 70%”.

Still in this assay, the particulars now being: conjugate against native insulin.
For the molecule “#4-Cys-Insulin: B29 modified insulin disulfide-conjugated to 4Cys GSLDESFYDWFERQLGC (SEQ ID NO: 167)”, the “antagonism at the insulin receptor isoforms” value is “some degree of antagonism”.

The test system is the same in the next assay.
Assay: not given
The following applies: non-covalent addition (in trans); previous work; cited from earlier work.
Regarding “SLEEEWAQIQSEVWGRGSPSYC (synthetic insulin receptor antagonist peptide) [#6Cys]”, the “antagonism of native insulin by unconjugated peptide (words)” value is “incapable of antagonizing native insulin”.

Staying with this assay, now noted: non-covalent addition (in trans); previous work; listed as #6-Cys; cited from earlier work.
Regarding “SLEEEWAQIQSEVWGRGSPSYC (synthetic insulin receptor antagonist peptide) [#6Cys]”, the “antagonism of native insulin by unconjugated peptide (words)” value is reported as “incapable of antagonism in vitro”.

In a further assay the target is T1, human insulin receptor (human, UniProt P06213 28-1382).
T1 construct: whole, on cells; Stood in the assay as plasma membrane fragments on wheat germ agglutinin SPA beads, not as whole cells
In words: scintillation proximity competition binding against 125I-insulin, membranes with human insulin receptor.
Details: not given
The protocol: The affinity of each peptide for the insulin or IGF-1 receptor was measured in a competition binding assay utilizing scintillation proximity technology. […] Non-specifically bound (NSB) radioactivity was measured in the wells with a four-fold concentration excess of “cold” native ligand than the highest concentration in test samples. Total bound radioactivity was detected in the wells with no competitor. Percent specific binding was calculated as following: % Specific Binding=(Bound-NSB/Total bound-NSB)×100. IC50 values were determined by using Origin software (OriginLab, Northampton, Mass.).
In the case of B1, the IC50 worked out at 0.51 nM.

For another assay, the system named is mice. Description: Comparative insulin tolerance tests on mice (acylated insulin analogs). Particulars: 27 nmol/kg and 90 nmol/kg; even after 8 hours. Type of assay: in vivo. The method, then:
The polypeptides were tested at two different concentrations (27 nmol/kg and 90 nmol/kg). The acylated insulins included MIU-41, MIU-36 and MIU-37.
The compounds were tested at two different concentrations (27 nmol/kg and 90 nmol/kg).
For “[B^1(C16-K0,H5,H10,Y16,L17)26A: A1(N18,N21)] [MIU-36]”, the “blood glucose lowering relative to native insulin” value is “more basal and sustained lowered glucose levels”. As for “[B^1(H5,H10,Y16,L17)26A: A^1(H8,rEC16-K14,N18,N21)] [MIU-41]”, the “blood glucose lowering relative to native insulin” value is “more basal and sustained lowered glucose levels”. On the same count and under the same terms, the entry for “[B^1(H5,H10,Y16,L17,C16rE-K22)26A: A^1(N18,N21)] [MIU-37]” is “more basal and sustained lowered glucose levels”.

The record behind these values is patent US20170313755A1 (priority 2016, published 2017).
